Reference: the NIST ThermoML archive (doi:10.1021/je9005823)
Numbers after ± are expanded uncertainties.

Experiments:
[1] = xn = mol fraction of the nth substance listed; conditions: 298.15 K, 101 kPa, Liquid; for viscosity: Capillary tube (Ostwald / Ubbelohde) method
[2] = refractive index (Na D-line) (dimensionless); xn = mol fraction of the nth substance listed; conditions: 298.15 K, 101 kPa, Liquid
[3] = 298.15 K, 101 kPa, Liquid; for viscosity: Capillary tube (Ostwald / Ubbelohde) method
[4] = refractive index (Na D-line) (dimensionless); conditions: 298.15 K; 101.33 kPa; Liquid

CCCCCC(C)O (stereo not drawn) [2-heptanol] + CC(=O)c1ccccc1
viscosity ([1]; x2 = 0): 5.33 ± 0.039 mPa·s
viscosity ([1]; x2 = 0.0913): 4.282 ± 0.032 mPa·s
viscosity ([1]; x2 = 0.1631): 3.572 ± 0.027 mPa·s
viscosity ([1]; x2 = 0.2637): 2.763 ± 0.021 mPa·s
viscosity ([1]; x2 = 0.3425): 2.296 ± 0.017 mPa·s
viscosity ([1]; x2 = 0.4374): 1.908 ± 0.015 mPa·s
viscosity ([1]; x2 = 0.5387): 1.662 ± 0.013 mPa·s
viscosity ([1]; x2 = 0.6446): 1.55 ± 0.012 mPa·s
viscosity ([1]; x2 = 0.7571): 1.548 ± 0.012 mPa·s
viscosity ([1]; x2 = 0.8733): 1.606 ± 0.012 mPa·s
viscosity ([1]; x2 = 0.9542): 1.651 ± 0.013 mPa·s
mass density ([1]; x2 = 0): 813.33 ± 0.55 kg/m3
mass density ([1]; x2 = 0.0913): 829.12 ± 0.53 kg/m3
mass density ([1]; x2 = 0.1631): 841.87 ± 0.51 kg/m3
mass density ([1]; x2 = 0.2637): 860.39 ± 0.49 kg/m3
mass density ([1]; x2 = 0.3425): 875.43 ± 0.47 kg/m3
mass density ([1]; x2 = 0.4374): 894.2 ± 0.45 kg/m3
mass density ([1]; x2 = 0.5387): 915.07 ± 0.42 kg/m3
mass density ([1]; x2 = 0.6446): 937.92 ± 0.4 kg/m3
mass density ([1]; x2 = 0.7571): 963.35 ± 0.37 kg/m3
mass density ([1]; x2 = 0.8733): 991.14 ± 0.34 kg/m3
mass density ([1]; x2 = 0.9542): 1011.38 ± 0.35 kg/m3
refractive index ([2]; x2 = 0): 1.4188 ± 0.0007
refractive index ([2]; x2 = 0.0913): 1.4489 ± 0.0007
refractive index ([2]; x2 = 0.1631): 1.4748 ± 0.0007
refractive index ([2]; x2 = 0.2637): 1.5079 ± 0.0007
refractive index ([2]; x2 = 0.3425): 1.5298 ± 0.0007
refractive index ([2]; x2 = 0.4374): 1.5535 ± 0.0007
refractive index ([2]; x2 = 0.9542): 1.5486 ± 0.0007

CCC(C)O (stereo not drawn) [butan-2-ol]
mass density [3]: 802.56 ± 0.56 kg/m3
viscosity [3]: 3.132 ± 0.024 mPa·s
refractive index [4]: 1.3946 ± 0.0007

CCCC(C)O (stereo not drawn) [pentan-2-ol] + CC(=O)c1ccccc1
viscosity ([1]; x2 = 0): 3.478 ± 0.026 mPa·s
mass density ([1]; x2 = 0): 805.24 ± 0.56 kg/m3
refractive index ([2]; x2 = 0): 1.4045 ± 0.0007

CCCC(C)O (stereo not drawn) [pentan-2-ol]
mass density [3]: 805.24 ± 0.56 kg/m3
viscosity [3]: 3.478 ± 0.026 mPa·s
refractive index [4]: 1.4045 ± 0.0007

CC(=O)c1ccccc1 [acetophenone] + CCCC(C)O
viscosity ([1]; x1 = 0.0917): 2.767 ± 0.021 mPa·s
viscosity ([1]; x1 = 0.1629): 2.314 ± 0.018 mPa·s
viscosity ([1]; x1 = 0.2502): 1.875 ± 0.014 mPa·s
viscosity ([1]; x1 = 0.3416): 1.626 ± 0.013 mPa·s
viscosity ([1]; x1 = 0.4371): 1.502 ± 0.012 mPa·s
viscosity ([1]; x1 = 0.5387): 1.489 ± 0.011 mPa·s
viscosity ([1]; x1 = 0.6442): 1.534 ± 0.012 mPa·s
viscosity ([1]; x1 = 0.7547): 1.605 ± 0.012 mPa·s
viscosity ([1]; x1 = 0.8716): 1.658 ± 0.013 mPa·s
viscosity ([1]; x1 = 0.949): 1.669 ± 0.013 mPa·s
viscosity ([1]; x1 = 1): 1.678 ± 0.013 mPa·s
mass density ([1]; x1 = 0.0917): 826.19 ± 0.53 kg/m3
mass density ([1]; x1 = 0.1629): 842.36 ± 0.51 kg/m3
mass density ([1]; x1 = 0.2502): 862.04 ± 0.49 kg/m3
mass density ([1]; x1 = 0.3416): 882.41 ± 0.46 kg/m3
mass density ([1]; x1 = 0.4371): 903.49 ± 0.44 kg/m3
mass density ([1]; x1 = 0.5387): 925.71 ± 0.41 kg/m3
mass density ([1]; x1 = 0.6442): 948.51 ± 0.39 kg/m3
mass density ([1]; x1 = 0.7547): 972.08 ± 0.36 kg/m3
mass density ([1]; x1 = 0.8716): 996.7 ± 0.33 kg/m3
mass density ([1]; x1 = 0.949): 1012.77 ± 0.35 kg/m3
mass density ([1]; x1 = 1): 1023.3 ± 0.37 kg/m3
refractive index ([2]; x1 = 0.0917): 1.4627 ± 0.0007
refractive index ([2]; x1 = 0.1629): 1.4972 ± 0.0007
refractive index ([2]; x1 = 0.2502): 1.5257 ± 0.0007
refractive index ([2]; x1 = 0.3416): 1.5487 ± 0.0007
refractive index ([2]; x1 = 0.8716): 1.547 ± 0.0007
refractive index ([2]; x1 = 0.949): 1.539 ± 0.0007
refractive index ([2]; x1 = 1): 1.5308 ± 0.0007

CCCCC(C)O (stereo not drawn) [2-hexanol]
mass density [3]: 810.14 ± 0.55 kg/m3
viscosity [3]: 4.1 ± 0.031 mPa·s
refractive index [4]: 1.4116 ± 0.0007

CC(=O)c1ccccc1 [acetophenone] + CCC(C)O
viscosity ([1]; x1 = 0.1031): 2.345 ± 0.018 mPa·s
viscosity ([1]; x1 = 0.1635): 2.009 ± 0.015 mPa·s
viscosity ([1]; x1 = 0.2517): 1.705 ± 0.013 mPa·s
viscosity ([1]; x1 = 0.3422): 1.544 ± 0.012 mPa·s
viscosity ([1]; x1 = 0.4361): 1.461 ± 0.011 mPa·s
viscosity ([1]; x1 = 0.533): 1.46 ± 0.011 mPa·s
viscosity ([1]; x1 = 0.6461): 1.506 ± 0.012 mPa·s
viscosity ([1]; x1 = 0.7517): 1.562 ± 0.012 mPa·s
viscosity ([1]; x1 = 0.8675): 1.617 ± 0.013 mPa·s
viscosity ([1]; x1 = 0.9462): 1.65 ± 0.013 mPa·s
viscosity ([1]; x1 = 1): 1.678 ± 0.013 mPa·s
mass density ([1]; x1 = 0.1031): 830.43 ± 0.53 kg/m3
mass density ([1]; x1 = 0.1635): 846.12 ± 0.51 kg/m3
mass density ([1]; x1 = 0.2517): 868.13 ± 0.48 kg/m3
mass density ([1]; x1 = 0.3422): 889.8 ± 0.46 kg/m3
mass density ([1]; x1 = 0.4361): 911.31 ± 0.43 kg/m3
mass density ([1]; x1 = 0.533): 932.56 ± 0.4 kg/m3
mass density ([1]; x1 = 0.6461): 956.27 ± 0.38 kg/m3
mass density ([1]; x1 = 0.7517): 977.34 ± 0.35 kg/m3
mass density ([1]; x1 = 0.8675): 999.34 ± 0.33 kg/m3
mass density ([1]; x1 = 0.9462): 1013.72 ± 0.35 kg/m3
mass density ([1]; x1 = 1): 1023.3 ± 0.37 kg/m3
refractive index ([2]; x1 = 0.1031): 1.4255 ± 0.0007
refractive index ([2]; x1 = 0.1635): 1.4443 ± 0.0007
refractive index ([2]; x1 = 0.2517): 1.4669 ± 0.0007
refractive index ([2]; x1 = 0.3422): 1.4877 ± 0.0007
refractive index ([2]; x1 = 0.4361): 1.5044 ± 0.0007
refractive index ([2]; x1 = 0.533): 1.5189 ± 0.0007
refractive index ([2]; x1 = 0.6461): 1.5314 ± 0.0007
refractive index ([2]; x1 = 0.7517): 1.5367 ± 0.0007
refractive index ([2]; x1 = 0.8675): 1.5351 ± 0.0007
refractive index ([2]; x1 = 0.9462): 1.5336 ± 0.0007
refractive index ([2]; x1 = 1): 1.5308 ± 0.0007
